Measured values: patent US11643388B2, “Inhibitors of alpha 2 beta 1 integrin and methods of use thereof” (The Regents of the University of California, priority 2020, dated 2023)

target: T1, α2β1 (Homo sapiens, UniProt P05556+P17301); test: α2β1 cell adhesion; assay type: cell-based
T1 sequence (P17301 30-1181): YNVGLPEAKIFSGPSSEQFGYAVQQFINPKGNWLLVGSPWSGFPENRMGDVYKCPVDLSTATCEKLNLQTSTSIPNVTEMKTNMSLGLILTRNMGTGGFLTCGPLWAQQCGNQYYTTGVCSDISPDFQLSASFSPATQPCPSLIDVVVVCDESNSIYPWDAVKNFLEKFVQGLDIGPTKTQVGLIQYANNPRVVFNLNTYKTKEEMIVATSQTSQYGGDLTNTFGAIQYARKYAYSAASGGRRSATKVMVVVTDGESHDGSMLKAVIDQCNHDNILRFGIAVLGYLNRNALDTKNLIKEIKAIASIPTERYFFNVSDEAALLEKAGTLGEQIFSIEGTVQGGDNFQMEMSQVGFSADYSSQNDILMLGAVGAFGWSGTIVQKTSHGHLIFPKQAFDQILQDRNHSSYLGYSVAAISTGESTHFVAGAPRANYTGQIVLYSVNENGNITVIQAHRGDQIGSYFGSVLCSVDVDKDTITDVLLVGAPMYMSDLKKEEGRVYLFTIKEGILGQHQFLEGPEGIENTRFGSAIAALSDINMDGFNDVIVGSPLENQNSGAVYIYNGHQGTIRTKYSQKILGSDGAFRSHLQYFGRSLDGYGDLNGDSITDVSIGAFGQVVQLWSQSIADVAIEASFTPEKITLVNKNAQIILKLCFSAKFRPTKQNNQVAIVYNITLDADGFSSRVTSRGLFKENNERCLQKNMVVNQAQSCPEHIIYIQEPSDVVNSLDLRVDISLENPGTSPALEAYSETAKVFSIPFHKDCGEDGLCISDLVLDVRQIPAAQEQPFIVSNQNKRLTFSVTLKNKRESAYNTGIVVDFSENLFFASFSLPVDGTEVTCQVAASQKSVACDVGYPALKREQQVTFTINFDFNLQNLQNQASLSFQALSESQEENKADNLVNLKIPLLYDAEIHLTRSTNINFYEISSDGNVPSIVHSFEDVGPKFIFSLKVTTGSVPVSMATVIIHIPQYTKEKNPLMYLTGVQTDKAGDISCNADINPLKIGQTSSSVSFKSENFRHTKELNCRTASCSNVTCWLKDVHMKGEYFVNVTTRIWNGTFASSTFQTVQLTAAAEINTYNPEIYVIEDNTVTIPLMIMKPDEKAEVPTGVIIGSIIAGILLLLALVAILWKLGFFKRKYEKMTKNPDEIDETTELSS
T1 sequence (P05556 21-798): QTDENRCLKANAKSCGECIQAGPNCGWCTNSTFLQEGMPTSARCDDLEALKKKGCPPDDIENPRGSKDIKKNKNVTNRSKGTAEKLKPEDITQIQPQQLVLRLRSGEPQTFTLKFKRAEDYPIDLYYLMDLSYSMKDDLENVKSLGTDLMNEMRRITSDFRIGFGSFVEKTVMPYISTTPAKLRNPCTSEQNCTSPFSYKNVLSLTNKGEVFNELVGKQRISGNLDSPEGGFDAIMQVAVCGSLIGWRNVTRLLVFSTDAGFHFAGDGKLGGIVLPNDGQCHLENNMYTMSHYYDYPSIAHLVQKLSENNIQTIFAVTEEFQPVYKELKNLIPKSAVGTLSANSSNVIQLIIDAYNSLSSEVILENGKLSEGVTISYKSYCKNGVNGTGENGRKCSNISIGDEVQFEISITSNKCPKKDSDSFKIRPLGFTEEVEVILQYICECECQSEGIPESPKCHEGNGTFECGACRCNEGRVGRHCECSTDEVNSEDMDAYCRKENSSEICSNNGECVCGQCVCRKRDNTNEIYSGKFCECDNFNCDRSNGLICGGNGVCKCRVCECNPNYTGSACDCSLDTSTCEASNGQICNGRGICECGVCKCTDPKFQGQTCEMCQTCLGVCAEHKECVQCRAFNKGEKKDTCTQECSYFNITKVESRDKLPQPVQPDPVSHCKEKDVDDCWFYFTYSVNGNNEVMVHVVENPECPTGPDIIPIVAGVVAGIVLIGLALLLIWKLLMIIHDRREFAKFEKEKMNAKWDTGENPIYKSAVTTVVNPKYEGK

| SMILES | IC50 [µM] |
| --- | --- |
| O=C(NC[C@H](NC(=O)c1c(Cl)cc(-c2ccccc2)cc1Cl)C(=O)O)N[C@@H]1CCc2ccccc21 [SU15210-0140-01] | > 5 |
| CC(C)CCNc1ccc(Cl)c(C(=O)N[C@@H](CNC(=O)N[C@@H]2CCc3ccccc32)C(=O)O)c1Cl [SU15210-0125-01, (S)-2-(2,6-dichloro-3-(isopentylamino)benzamido)-3-(3-((R)-2,3-dihydro-1H-inden-1-yl)ureido)propanoic Acid] | 1 to 5 |
| O=C(NC[C@H](NC(=O)c1c(Cl)cc2c(c1Cl)CCNC2)C(=O)O)N[C@@H]1CCc2ccccc21 [SU15210-0171-01] | > 5 |

Results, then the compound that gave them:

| IC50 [µM] | SMILES |
| --- | --- |
| < 0.5 | O=C(Cc1cccc(Cl)c1)Nc1cc(Cl)c(C(=O)N[C@@H](CNC(=O)N[C@@H]2CCc3ccccc32)C(=O)O)c(Cl)c1 [SU15210-0235-01, (S)-2-(2,6-dichloro-4-(2-(3-chlorophenyl)acetamido)benzamido)-3-(3-((R)-2,3-dihydro-1H-inden-1-yl)ureido)propanoic Acid] |
| 0.5 to 1 | O=C(Cc1ccc(F)c(Cl)c1)Nc1ccc(Cl)c(C(=O)N[C@@H](CNC(=O)N[C@@H]2CCc3ccccc32)C(=O)O)c1Cl [SU15210-0155-01, (S)-2-(2,6-dichloro-3-(2-(3-chloro-4-fluorophenyl)acetamido)benzamido)-3-(3-((R)-2,3-dihydro-1H-inden-1-yl)ureido)propanoic Acid] |
| 0.5 to 1 | Cc1cccc(CC(=O)Nc2ccc(Cl)c(C(=O)N[C@@H](CNC(=O)N[C@@H]3CCc4ccccc43)C(=O)O)c2Cl)c1 [SU15210-0156-01, (S)-2-(2,6-dichloro-3-(2-m-tolylacetamido)benzamido)-3-(3-((R)-2,3-dihydro-1H-inden-1-yl)ureido)propanoic Acid] |
| 1 to 5 | O=C(NC[C@H](NC(=O)c1c(Cl)ccc(NC2CCc3ccccc3C2)c1Cl)C(=O)O)N[C@@H]1CCc2ccccc21 (stereo partly drawn) [SU15210-0126-01, (2S)-2-(2,6-dichloro-3-(1,2,3,4-tetrahydronaphthalen-2-ylamino)benzamido)-3-(3-((R)-2,3-dihydro-1H-inden-1-yl)ureido)propanoic Acid] |
| < 0.5 | O=C(NC[C@H](NC(=O)c1c(Cl)cc(C(=O)N2CC(c3ccccc3)C2)cc1Cl)C(=O)O)N[C@@H]1CCc2ccccc21 [SU15210-0234-01] |
| 0.5 to 1 | CN(Cc1cccc(Cl)c1)C(=O)c1cc(Cl)c(C(=O)N[C@@H](CNC(=O)N[C@@H]2CCc3ccccc32)C(=O)O)c(Cl)c1 [SU15210-0226-01, (S)-2-(2,6-dichloro-4-((3-chlorobenzyl)(methyl)carbamoyl)benzamido)-3-(3-((R)-2,3-dihydro-1H-inden-1-yl)ureido)propanoic Acid] |
| 0.5 to 1 | Nc1ccc(Cl)c(C(=O)N[C@@H](CNC(=O)N[C@@H]2CCc3ccccc32)C(=O)O)c1Cl [SU15210-0084-01, (S)-2-(3-amino-2,6-dichlorobenzamido)-3-(3-((R)-2,3-dihydro-1H-inden-1-yl)ureido)propanoic Acid] |

target: T1, α2β1; test: α2β1 cell adhesion assay; assay type: cell-based

| IC50 [µM] | SMILES |
| --- | --- |
| 1 to 5 | CCOC(=O)[C@H](CNC(=O)N[C@@H]1CCc2ccccc21)NC(=O)c1c(Cl)cc(C(=O)NCc2cccc(Cl)c2)cc1Cl [SU15210-0280, (S)-ethyl 2-(2,6-dichloro-4-(3-chlorobenzylcarbamoyl)benzamido)-3-(3-((R)-2,3-dihydro-1H-inden-1-yl)ureido)propanoate] |
| < 0.5 | O=C(NC[C@H](NC(=O)c1c(Cl)cc(C(=O)NCc2cccc(F)c2)cc1Cl)C(=O)O)N[C@@H]1CCc2ccccc21 [SU15210-0289, (S)-2-(2,6-dichloro-4-(3-fluorobenzylcarbamoyl)benzamido)-3-(3-((R)-2,3-dihydro-1H-inden-1-yl)ureido)propanoic Acid] |
| 1 to 5 | CN(Cc1ccccc1)C(=O)NC[C@H](NC(=O)c1c(Cl)cc2c(c1Cl)CCN(CC1CC1)C2=O)C(=O)O [SU15210-0251, (2S)-3-[[benzyl(methyl)carbamoyl]amino]-2-[[5,7-dichloro-2-(cyclopropylmethyl)-1-oxo-3,4-dihydroisoquinoline-6-carbonyl]amino]propanoic Acid] |
